Legend:
[1] = system: human fibroblast (ATCC 2076); assay: Confirmation of cytotoxicity (MTT cell viability); type: cell-based; settings: for Cell viability (%): human fibroblast, MTT
Experimental: The cell viability for human fibroblast (ATCC 2076) was measured using the anti-inflammatory composition prepared in the following Examples.
The human fibroblast (ATCC 2076) with a concentration of 5×10^4 cells/ml was inoculated into a 24-well culture plate of Iscove's Modified Dulbecco's Medium (IMDM, GIBCO) containing 10% bovine serum. […] Then, the supernatant was removed, the cells were washed with 200 μl of 5% phosphate buffered saline (PBS), 1.0 ml of MTT solution was added to each well, and after 4 hours, and the MTT was removed. Next, 1.0 ml of DMSO was added to each well, and incubation was performed overnight at 37° C. The absorbance at 570 nm was measured to determine the cell viability using Equation 1 below, and results thereof are shown in Table 1 below. Here, as a negative control group, a test group in which the active ingredient was not used was adopted. Cell viability (%)=(A570λ value/B570λ value)×100 [Equation 1]
A: Absorbance value at 570 nm of Example
B: Absorbance value at 570 nm of negative control group

IL-8 = assay: Anti-inflammatory effect: IL-8 expression in atopic dermatitis-induced 3D skin model (immunohistochemistry); type: cell-based; settings: compared with the atopic dermatitis-induced skin model, 72 hours, quantified immunohistochemistry, read-out: IL-8 inhibitory effect
Experimental: (§1) In order to measure the anti-inflammatory efficacy, atopic dermatitis was induced with respect to IL-8 and IL-17A, which are inflammation-inducing cytokines, and expression amounts thereof were measured.
(§2) In order to induce atopic dermatitis, the 3D culture tissue (EpiDerm Full Thickness 400, sold by MatTek) media containing Poly (I:C), TNF-α, IL-4 and IL-13 were used, and treated for 72 hours with N-(2-hydroxyethyl)octanamide at a final concentration of 100 μM. Then, the 3D culture tissue was immobilized on formalin to make a paraffin block, and the degree of expression of inflammation-inducing cytokine was evaluated.
(§3) In FIG. 1, AD represents a skin model in which atopic dermatitis was induced, and the anti-inflammatory effect was evaluated based on the expression amounts of IL-8 and IL-17A.
(§4) Further, the inhibitory effect of each cytokine was quantified based on the results obtained through the immunohistochemistry obtained in FIG. 1, and shown in FIG. 2.

atopic dermatitis = assay: Atopic dermatitis improvement effect (EASI score); type: in vivo, human; settings: 30 pediatric patients with atopic dermatitis, twice a day for 4 weeks
Experimental: In order to measure atopic dermatitis improvement effect, the anti-inflammatory compositions were prepared according to the following Examples. Here, the atopic dermatitis improvement effect was measured using an eczema area severity index (EASI) score. 30 pediatric patients with atopic dermatitis were treated twice a day for 4 weeks, and then effects on atopic symptoms were measured. Here, as a negative control group, a test group in which the active ingredient was not used was adopted.

IL-17A = assay: Anti-inflammatory effect: IL-17A expression in atopic dermatitis-induced 3D skin model (immunohistochemistry); type: cell-based; settings: compared with the atopic dermatitis-induced skin model, 72 hours, quantified immunohistochemistry, read-out: IL-17A inhibitory effect
Experimental: as §1, §2, §3, §4

## CCCCCCCC(=O)NCCO [Example 1, N-(2-hydroxyethyl)octanamide]
[1]; in the concentration range of the evaluation method
  Cytotoxicity: no cytotoxicity
[1]; used amount 0.00064 μM
  Cell viability (%): 100%
[1]; used amount 0.0032 μM
  Cell viability (%): 102%
[1]; used amount 0.016 μM
  Cell viability (%): 97%
[1]; used amount 0.08 μM
  Cell viability (%): 98%
[1]; used amount 0.4 μM
  Cell viability (%): 98%
[1]; used amount 2 μM
  Cell viability (%): 101%
[1]; used amount 10 μM
  Cell viability (%): 103%
[1]; used amount 50 μM
  Cell viability (%): 98%
[1]; used amount 250 μM
  Cell viability (%): 109%
IL-8
  inhibition at 100 µM: ≥ 48.6%
Atopic dermatitis
  Atopic dermatitis improvement effect (EASI score): significant numerical decrease
IL-17A
  inhibition at 100 µM: ≥ 57.5%

— US11351131B2, “Anti-inflammatory composition” (NEOPHARM CO., LTD., priority 2016, dated 2022)
